Where “and” joins values, the source holds several entries; their conditions need not be identical. Identical values can stand only once. Inconclusive results are not listed.
Tested on: MX-1 breast xenograft, intrarenal, nude mice, tumor weight
Assay: NCI In Vivo Anticancer Drug Screen. Data for tumor model Human Mammary Carcinoma MX-1 Xenograft (intrarenal inoculation) in NU/NU BALB/C (nude) mice
Conditions: endpoint: mean tumor weight change, higher = larger tumour
How it was run: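 Transplantable tumors established in mice; animals dosed with compound or vehicle; survival or tumor size then recorded. Result reported as treated (T) divided by vehicle control (C).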

[1] = dose: 75.0 mg/kg/injection, schedule: Q04DX003 (ip), vehicle: saline with Tween-80
[2] = dose: 150.0 mg/kg/injection, schedule: Q04DX003 (ip), vehicle: saline with Tween-80
[3] = dose: 150.0 mg/kg/injection, schedule: Q04DX003 (ip), vehicle: Klucel (hydroxypropylcellulose) (HPC)
[4] = dose: 150.0 mg/kg/injection, schedule: Q04DX003 (ip), vehicle: suspension in saline
[5] = dose: 300.0 mg/kg/injection, schedule: Q04DX003 (ip), vehicle: suspension in saline
[6] = dose: 75.0 mg/kg/injection, schedule: Q04DX003 (ip), vehicle: Klucel (hydroxypropylcellulose) (HPC)

In the case of `CNc1nc(NC)nc(NC)n1`, the T/C (dose: 12.5 mg/kg/injection, schedule: Q01DX010 (sc), vehicle: Klucel (hydroxypropylcellulose) (HPC)) is reported as 156 % of control, the T/C (dose: 25.0 mg/kg/injection, schedule: Q01DX010 (sc), vehicle: Klucel (hydroxypropylcellulose) (HPC)) is reported as 152 % of control and the T/C (dose: 50.0 mg/kg/injection, schedule: Q01DX010 (sc), vehicle: Klucel (hydroxypropylcellulose) (HPC)) is reported as 122 % of control. For the same compound, the T/C (dose: 100.0 mg/kg/injection, schedule: Q01DX010 (sc), vehicle: Klucel (hydroxypropylcellulose) (HPC)) was 83 % of control.
For `COc1cc2c[n+](C)c3c(c2cc1OC)Cc1cc2c(cc1-3)OCO2`, the T/C [1] was 102 % of control and the T/C [2] was 35 % of control.
`S=C1CCCCN1` was tested, and the T/C (dose: 150.0 mg/kg/injection, schedule: Q04DX003 (ip), vehicle: distilled water + Tween-80 + alcohol) was 82 % of control and the T/C (dose: 300.0 mg/kg/injection, schedule: Q04DX003 (ip), vehicle: distilled water + Tween-80 + alcohol) was 72 % of control.
`CC(C)(O)/C=C/C(=O)[C@](C)(O)[C@H]1[C@H](O)C[C@@]2(C)[C@@H]3CC=C4[C@@H](C=C(O)C(=O)C4(C)C)[C@]3(C)C(=O)C[C@]12C` was tested, and the T/C (dose: 0.25 mg/kg/injection, schedule: Q04DX003 (ip), vehicle: water) was 155 % of control, the T/C (dose: 0.5 mg/kg/injection, schedule: Q04DX003 (ip), vehicle: water) was 118 % of control and the T/C (dose: 1.0 mg/kg/injection, schedule: Q04DX003 (ip), vehicle: water) was 122 % of control. The T/C (dose: 2.0 mg/kg/injection, schedule: Q04DX003 (ip), vehicle: water) was 86 % of control.
In the case of `COc1ccc(S(=O)(=O)N/N=C/C(=O)O)cc1`, the T/C (dose: 25.0 mg/kg/injection, schedule: Q01DX010 (sc), vehicle: saline with Tween-80) is reported as 79 % of control, the T/C (dose: 50.0 mg/kg/injection, schedule: Q01DX010 (sc), vehicle: saline with Tween-80) is reported as 59 % of control and the T/C (dose: 100.0 mg/kg/injection, schedule: Q01DX010 (sc), vehicle: saline with Tween-80) is reported as 8 % of control.
`CC(/C=N/N=C(N)N)=N\N=C(N)N` was tested, and the T/C (dose: 25.0 mg/kg/injection, schedule: Q01DX010 (sc), vehicle: water) was 167 % of control, the T/C (dose: 50.0 mg/kg/injection, schedule: Q01DX010 (sc), vehicle: water) was 73 % of control and the T/C (dose: 100.0 mg/kg/injection, schedule: Q01DX010 (sc), vehicle: water) was 43 % of control.
For `CN1COc2c(n(C)c(=O)[nH]c2=O)C1`, the T/C (dose: 100.0 mg/kg/injection, schedule: Q04DX003 (ip), vehicle: suspension in saline) was 85 % of control, the T/C (dose: 200.0 mg/kg/injection, schedule: Q04DX003 (ip), vehicle: saline) was 92 % of control and the T/C (dose: 200.0 mg/kg/injection, schedule: Q04DX003 (ip), vehicle: suspension in saline) was 65 % of control. For the same compound, the T/C (dose: 400.0 mg/kg/injection, schedule: Q04DX003 (ip), vehicle: saline) was 103 % of control, the T/C (dose: 400.0 mg/kg/injection, schedule: Q04DX003 (ip), vehicle: suspension in saline) was 68 % of control and the T/C (dose: 800.0 mg/kg/injection, schedule: Q04DX003 (ip), vehicle: saline) was 102 % of control. The T/C (dose: 800.0 mg/kg/injection, schedule: Q04DX003 (ip), vehicle: suspension in saline) was 72 % of control.
With `CC(=O)C(Cl)C(=O)c1c(C)[nH]n(-c2ccccc2)c1=O` (stereo not drawn) the T/C [3] was 103 % of control.
In the case of `CC#CCOCC(O)CCl` (stereo not drawn), the T/C [4] is reported as 91 % of control and 97 % of control and the T/C [5] is reported as 97 % of control.
`COc1ccc(O)cc1` was tested, and the T/C (dose: 50.0 mg/kg/injection, schedule: Q04DX003 (ip), vehicle: saline with Tween-80) was 76 % of control, the T/C (dose: 100.0 mg/kg/injection, schedule: Q04DX003 (ip), vehicle: saline with Tween-80) was 87 % of control and the T/C (dose: 200.0 mg/kg/injection, schedule: Q04DX003 (ip), vehicle: saline with Tween-80) was 79 % of control. For the same compound, the T/C (dose: 400.0 mg/kg/injection, schedule: Q04DX003 (ip), vehicle: saline with Tween-80) was 53 % of control.
In the case of `Nc1c(/C=C/c2cc3cc(C4=NCCN4)ccc3o2)[nH]c2cc(C3=NCCN3)ccc12`, the T/C (dose: 37.5 mg/kg/injection, schedule: Q04DX003 (ip), vehicle: Klucel (hydroxypropylcellulose) (HPC)) is reported as 80 % of control, the T/C [6] is reported as 103 % of control and the T/C [3] is reported as 40 % of control.
`OC1OC2COC(c3ccccc3)OC2C(O)C1O` (stereo not drawn) was tested, and the T/C (dose: 300.0 mg/kg/injection, schedule: Q04DX003 (sc), vehicle: water) was 57 % of control, the T/C (dose: 600.0 mg/kg/injection, schedule: Q04DX003 (sc), vehicle: water) was 91 % of control and the T/C (dose: 1200.0 mg/kg/injection, schedule: Q04DX003 (sc), vehicle: water) was 91 % of control. The T/C (dose: 2400.0 mg/kg/injection, schedule: Q04DX003 (sc), vehicle: water) was 105 % of control.
With `COc1ccc([C@@]23Oc4cc(OC)cc(OC)c4[C@]2(O)[C@H](O)[C@H](C(=O)N(C)C)[C@H]3c2ccccc2)cc1` the T/C (dose: 2.0 mg/kg/injection, schedule: Q04DX003 (ip), vehicle: Klucel (hydroxypropylcellulose) (HPC)) was 92 % of control, the T/C (dose: 4.0 mg/kg/injection, schedule: Q04DX003 (ip), vehicle: Klucel (hydroxypropylcellulose) (HPC)) was 79 % of control and the T/C (dose: 8.0 mg/kg/injection, schedule: Q04DX003 (ip), vehicle: Klucel (hydroxypropylcellulose) (HPC)) was 79 % of control. The T/C (dose: 16.0 mg/kg/injection, schedule: Q04DX003 (ip), vehicle: Klucel (hydroxypropylcellulose) (HPC)) was 88 % of control.
In the case of `COc1cccc2c1C(=O)c1c(O)c3c(c(O)c1C2=O)CC(O)(/C(C)=N/NC(=O)CCCCC(=O)N/N=C(\C)C1(O)Cc2c(O)c4c(c(O)c2C(OC2CC(N)C(O)C(C)O2)C1)C(=O)c1c(OC)cccc1C4=O)CC3OC1CC(N)C(O)C(C)O1` (stereo not drawn), the T/C (dose: 12.5 mg/kg/injection, schedule: Q04DX003 (sc), vehicle: water) is reported as 41 % of control, the T/C (dose: 25.0 mg/kg/injection, schedule: Q04DX003 (sc), vehicle: water) is reported as 5 % of control and the T/C (dose: 50.0 mg/kg/injection, schedule: Q04DX003 (sc), vehicle: water) is reported as -56 % of control.
`CN(C)C(=O)Nc1ccc(Cl)cc1` was tested, and the T/C [4] was 71 % of control, the T/C [5] was 98 % of control and the T/C (dose: 600.0 mg/kg/injection, schedule: Q04DX003 (ip), vehicle: suspension in saline) was 91 % of control.
For `CN=NN(C)C(=O)NC`, the T/C (dose: 37.5 mg/kg/injection, schedule: Q04DX003 (ip), vehicle: saline) was 112 % of control, the T/C (dose: 75.0 mg/kg/injection, schedule: Q04DX003 (ip), vehicle: saline) was 79 % of control and the T/C (dose: 108.0 mg/kg/injection, schedule: Q04DX003 (ip), vehicle: saline) was 2 % of control. The T/C (dose: 150.0 mg/kg/injection, schedule: Q04DX003 (ip), vehicle: saline) was 15 % of control, the T/C (dose: 180.0 mg/kg/injection, schedule: Q04DX003 (ip), vehicle: saline with Tween-80) was 108 % of control and the T/C (dose: 300.0 mg/kg/injection, schedule: Q04DX003 (ip), vehicle: saline) was -13 % of control. The T/C (dose: 500.0 mg/kg/injection, schedule: Q04DX003 (ip), vehicle: saline with Tween-80) was 124 % of control.
In the case of `CC(=O)c1c(O)c(C)c(O)c2c1OC1=CC(=O)C(C(C)=O)C(=O)C12C` (stereo not drawn), the T/C (dose: 200.0 mg/kg/injection, schedule: Q01DX010 (sc), vehicle: sodium bicarbonate) is reported as 96 % of control and the T/C (dose: 400.0 mg/kg/injection, schedule: Q01DX010 (sc), vehicle: sodium bicarbonate) is reported as 72 % of control.
With `CN(C)/N=N/c1nc[nH]c1C(N)=O` the T/C (dose: 50.0 mg/kg/injection, schedule: Q04DX003 (ip), vehicle: Klucel (hydroxypropylcellulose) (HPC)) was 74 % of control, the T/C [6] was 87 % of control and the T/C (dose: 112.0 mg/kg/injection, schedule: Q04DX003 (ip), vehicle: Klucel (hydroxypropylcellulose) (HPC)) was 82 % of control. The T/C (dose: 200.0 mg/kg/injection, schedule: Q01DX010 (sc), vehicle: Klucel (hydroxypropylcellulose) (HPC)) was 70 % of control and the T/C (dose: 400.0 mg/kg/injection, schedule: Q01DX010 (sc), vehicle: Klucel (hydroxypropylcellulose) (HPC)) was 14 % of control.
In the case of `Nc1ccc(C(=O)Nc2ccccc2N)cc1`, the T/C (dose: 25.0 mg/kg/injection, schedule: Q01DX010 (ip), vehicle: saline with Tween-80) is reported as 91 % of control, the T/C (dose: 50.0 mg/kg/injection, schedule: Q01DX010 (ip), vehicle: saline with Tween-80) is reported as 87 % of control and the T/C (dose: 100.0 mg/kg/injection, schedule: Q01DX010 (ip), vehicle: saline with Tween-80) is reported as 84 % of control. The T/C (dose: 200.0 mg/kg/injection, schedule: Q01DX010 (ip), vehicle: saline with Tween-80) was 36 % of control.
With `S=c1sc2ccccc2n1CN1CCOCC1` the T/C [1] was 77 % of control and 84 % of control, the T/C [2] was 110 % of control and 115 % of control and the T/C (dose: 300.0 mg/kg/injection, schedule: Q04DX003 (ip), vehicle: saline with Tween-80) was 79 % of control and 90 % of control. The T/C (dose: 600.0 mg/kg/injection, schedule: Q04DX003 (ip), vehicle: saline with Tween-80) was 67 % of control and 82 % of control.
`C=CC(=O)N1CN(C(=O)C=C)CN(C(=O)C=C)C1` was tested, and the T/C (dose: 6.25 mg/kg/injection, schedule: Q01DX010 (sc), vehicle: saline with Tween-80) was 116 % of control and the T/C (dose: 12.5 mg/kg/injection, schedule: Q01DX010 (sc), vehicle: saline with Tween-80) was 179 % of control.
